Laboratory results as given in paper PMC9557946, “Intermittent MEK inhibition for the treatment of metastatic uveal melanoma” (Frontiers in Oncology, 2022).
Values joined by “and” are separate entries in the source; they are usually repeats but may differ in a detail not shown here. Equal values may be shown once.

What was measured:
[1] = Phase Ib trial of intermittent selumetinib: adverse events, DLT and MTD; type: in vivo
Source text: This was a multi-center, open-label, phase Ib study conducted at Columbia University Irving Medical Center (New York, NY), University of Texas MD Anderson Cancer Center (Houston, TX), and Memorial Sloan Kettering Cancer Center (New York, NY). […] Exploratory objectives included pharmacodynamic (PD) assessment of target inhibition of the MEK pathway.
The MTD was estimated using the time to event continual reassessment method (TITE-CRM) with a target DLT rate of 0.25 ([17]). TITE-CRM was used as it allows use of partial information before a complete follow-up is achieved and allows for a longer toxicity evaluation window beyond the first cycle to account for late onset toxicities. As a result, trials can be conducted in a continuous fashion. […] Based on prior clinical data, the estimated MTD prior to conduct of the trial was DL2.
Descriptive statistics were used to report baseline characteristics of the study population. The observed rate and estimated rate of DLT were reported for each dose level along with the 90% probability interval. The number and percentage of patients with adverse events were summarized taking the highest grade and reported by grade for AEs that were at least possibly related to treatment. AEs with at prevalence of least 10% were reported separately. The overall response rate (ORR) was defined as a confirmed complete response (CR) or partial response (PR) according to RECIST 1.1 criteria ([18]) and reported by dose level. […] PFS was measured from date of enrollment until the date of progression or death, whichever occurred first. OS was defined as the time from the date of registration to the date of death by any cause.
Toxicity was graded using National Cancer Institute Common Terminology Criteria for Adverse Events (CTCAE v. 4.0). For recurrent adverse events (AEs), the highest reported grade per event per patient was assessed. The DLT observation period was 8 weeks from the initiation of treatment.

[2] = tested on: pERK; experiment: Pharmacodynamic analysis of serial tumor biopsies (immunoblot, densitometry); type: in vivo, human
Method: Serial tumor biopsies were collected from patients at baseline, on day 3, and between days 11 and 14. Flash-frozen specimens were lysed in RIPA lysis buffer. Equal amounts of protein were loaded on 4-20% PAGE gels (Invitrogen) and analyzed by immunoblotting using antibodies for pERK, ERK, cyclin D1 and α-tubulin (Cell Signaling). Signals from secondary antibodies were detected using ECL (Pierce) and autoradiography films. Densitometry analysis of each band was performed using Photoshop C6 and normalized to tubulin expression.

[3] = tested on: metastatic uveal melanoma; settings: ref [10], cited from earlier work
[4] = clinical; settings: human, in vivo
Method: Non-compartmental analyses were performed on the data for day 1, 2, 15 and 17 using Winnonlin software (Phoenix Winnonlin 8.3.1.5014, Certara L.P., Princeton, NJ). […] Data were summarized per dose level and per occasion. Dose-exposure relationships were explored by plotting dose versus the various parameters. Accumulation was investigated using the AUC assessed at various days.

[5] = cited from earlier work
[6] = related to study treatment, 29 patients, all dose levels

With `Cn1cnc2c(F)c(Nc3ccc(Br)cc3Cl)c(C(=O)NOCCO)cc21` [selumetinib] as the compound, how does the “increase of intermittent MTD over continuous dose MTD” value ([1]; 150 mg BID vs 75 mg BID) read?
Its value is 100%.

And the “patients requiring dose reduction for treatment-related toxicity” value ([1]; 29 patients, all dose levels)?
Its value is 21%.

And the “patients who discontinued therapy due to toxicity” value ([1]; 29 patients, all dose levels)?
The value was “Five patients discontinued therapy due to toxicity”.

What about the “patients with at least one treatment-related AE of any grade” value ([1]; 29 patients, all dose levels) of the same compound?
The value was “All patients”.

And the “patients with grade 3 or higher treatment-related AE” value ([1]; 29 patients, all dose levels)?
Its value is 17%.

And the “Observed DLTs” value ([1]; All dose levels, 29 patients)?
Its value is 5.

And the “estimated probability of toxicity at the MTD” value ([1]; DL3 150 mg BID, 90% probability interval 16%-44%)?
Its value is 29%.

And the “DLT Information” value ([1]; Dose Level 2 (125 mg BID))?
Its value is “• Grade 3 Hypertension • Grade 3 Abdominal pain”.

What about the “Observed DLTs” value ([1]; Dose Level 2 (125 mg BID), 20 patients) of the same compound?
Its value is 2/20 and 2.

And the “DLT Information” value ([1]; Dose Level 3 (150 mg BID))?
The value was “• Grade 3 Abdominal pain • Grade 3 AST elevation”.

What about the “Observed DLTs” value ([1]; Dose Level 3 (150 mg BID), 5 patients) of the same compound?
Its value is 2/5 and 2.

What about the “DLT Information” value ([1]; Dose Level 4 (175 mg BID)) of the same compound?
Its value is “• Grade 3 AST elevation”.

What about the “Observed DLTs” value ([1]; Dose Level 4 (175 mg BID), 1 patient) of the same compound?
Its value is 1/1 and 1.

What about the “most common grade 3 AE” value ([1]; all dose levels) of the same compound?
The value was “abdominal pain”.

And the “treatment discontinuation associated with liver enzyme elevation” value ([1]; all dose levels)?
Its value is 2 n.

What about the “treatment discontinuation associated with retinopathy” value ([1]; all dose levels) of the same compound?
The value was 2 n.

What about the “patients who died within 30 days of treatment discontinuation” value ([1]; all from progression of disease) of the same compound?
The value was 4 patients.

And the “Abdominal pain, All Grades” value [1, 6]?
Its value is 12 (41%) patients (%).

What about the “Abdominal pain, Grade 1” value [1, 6] of the same compound?
The value was 5 (17) n(%).

What about the “Abdominal pain, Grade 2” value [1, 6] of the same compound?
Its value is 4 (14) n(%).

What about the “Abdominal pain, Grade 3” value [1, 6] of the same compound?
The value was 3 (10) n(%).

And the “Abdominal pain, Grade 4” value [1, 6]?
Its value is 0 n(%).

And the “Anemia, All Grades” value [1, 6]?
Its value is 13 (45%) patients (%).

And the “Anemia, Grade 1” value [1, 6]?
Its value is 11 (38) n(%).

What about the “Anemia, Grade 2” value [1, 6] of the same compound?
The value was 1 (3) n(%).

What about the “Anemia, Grade 3” value [1, 6] of the same compound?
Its value is 0 n(%).

What about the “Anemia, Grade 4” value [1, 6] of the same compound?
The value was 1 (3) n(%).

And the “Constipation, All Grades” value [1, 6]?
Its value is 10 (34%) patients (%).

And the “Constipation, Grade 1” value [1, 6]?
The value was 8 (28) n(%).

And the “Constipation, Grade 2” value [1, 6]?
Its value is 2 (7) n(%).

And the “Constipation, Grade 3” value [1, 6]?
The value was 0 n(%).

And the “Constipation, Grade 4” value [1, 6]?
The value was 0 n(%).

And the “Decreased WBC, All Grades” value [1, 6]?
Its value is 8 (28%) patients (%).

And the “Decreased WBC, Grade 1” value [1, 6]?
The value was 5 (17) n(%).

And the “Decreased WBC, Grade 2” value [1, 6]?
Its value is 2 (7) n(%).

And the “Decreased WBC, Grade 3” value [1, 6]?
Its value is 1 (3) n(%).

What about the “Decreased WBC, Grade 4” value [1, 6] of the same compound?
Its value is 0 n(%).

And the “Diarrhea, All Grades” value [1, 6]?
The value was 16 (55%) patients (%).

And the “Diarrhea, Grade 1” value [1, 6]?
The value was 14 (48) n(%).

What about the “Diarrhea, Grade 2” value [1, 6] of the same compound?
Its value is 2 (7) n(%).

And the “Diarrhea, Grade 3” value [1, 6]?
Its value is 0 n(%).

And the “Diarrhea, Grade 4” value [1, 6]?
The value was 0 n(%).

And the “Fatigue, All Grades” value [1, 6]?
Its value is 25 (86%) patients (%).

What about the “Fatigue, Grade 1” value [1, 6] of the same compound?
Its value is 19 (66) n(%).

What about the “Fatigue, Grade 2” value [1, 6] of the same compound?
The value was 6 (21) n(%).

What about the “Fatigue, Grade 3” value [1, 6] of the same compound?
Its value is 0 n(%).

And the “Fatigue, Grade 4” value [1, 6]?
The value was 0 n(%).

What about the “Hypertension, All Grades” value [1, 6] of the same compound?
Its value is 14 (48%) patients (%).

And the “Hypertension, Grade 1” value [1, 6]?
The value was 3 (10) n(%).

And the “Hypertension, Grade 2” value [1, 6]?
The value was 9 (31) n(%).

What about the “Hypertension, Grade 3” value [1, 6] of the same compound?
The value was 2 (7) n(%).

What about the “Hypertension, Grade 4” value [1, 6] of the same compound?
The value was 0 n(%).

And the “Increased AST/ALT, All Grades” value [1, 6]?
Its value is 12 (41%) patients (%).

What about the “Increased AST/ALT, Grade 1” value [1, 6] of the same compound?
The value was 10 (34) n(%).

What about the “Increased AST/ALT, Grade 2” value [1, 6] of the same compound?
The value was 0 n(%).

And the “Increased AST/ALT, Grade 3” value [1, 6]?
The value was 2 (7) n(%).

What about the “Increased AST/ALT, Grade 4” value [1, 6] of the same compound?
Its value is 0 n(%).

What about the “Nausea, All Grades” value [1, 6] of the same compound?
The value was 17 (59%) patients (%).

What about the “Nausea, Grade 1” value [1, 6] of the same compound?
The value was 12 (41) n(%).

What about the “Nausea, Grade 2” value [1, 6] of the same compound?
The value was 5 (17) n(%).

And the “Nausea, Grade 3” value [1, 6]?
The value was 0 n(%).

What about the “Nausea, Grade 4” value [1, 6] of the same compound?
The value was 0 n(%).

What about the “Pruritus, Grade 1” value [1, 6] of the same compound?
The value was 10 (34) n(%).

What about the “Pruritus, Grade 2” value [1, 6] of the same compound?
The value was 0 n(%).

And the “Pruritus, Grade 3” value [1, 6]?
The value was 0 n(%).

And the “Pruritus, Grade 4” value [1, 6]?
Its value is 0 n(%).

What about the “Rash acneiform, All Grades” value [1, 6] of the same compound?
The value was 19 (65%) patients (%).

And the “Rash acneiform, Grade 1” value [1, 6]?
The value was 14 (48) n(%).

And the “Rash acneiform, Grade 2” value [1, 6]?
Its value is 5 (17) n(%).

And the “Rash acneiform, Grade 3” value [1, 6]?
Its value is 0 n(%).

And the “Rash acneiform, Grade 4” value [1, 6]?
Its value is 0 n(%).

And the “Retinopathy/Blurred Vision, All Grades” value [1, 6]?
Its value is 8 (28%) patients (%).

And the “Retinopathy/Blurred Vision, Grade 1” value [1, 6]?
The value was 8 (28) n(%).

And the “Retinopathy/Blurred Vision, Grade 2” value [1, 6]?
The value was 0 n(%).

And the “Retinopathy/Blurred Vision, Grade 3” value [1, 6]?
Its value is 0 n(%).

What about the “Retinopathy/Blurred Vision, Grade 4” value [1, 6] of the same compound?
Its value is 0 n(%).

What about the “Vomiting, All Grades” value [1, 6] of the same compound?
The value was 8 (28%) patients (%).

And the “Vomiting, Grade 1” value [1, 6]?
Its value is 5 (17) n(%).

And the “Vomiting, Grade 2” value [1, 6]?
The value was 3 (10) n(%).

What about the “Vomiting, Grade 3” value [1, 6] of the same compound?
The value was 0 n(%).

And the “Vomiting, Grade 4” value [1, 6]?
Its value is 0 n(%).

And the “mean reduction in pERK expression” value ([2]; day 3 of first cycle (on treatment) vs baseline, n=9)?
The value was 41.3%.

What about the “mean increase in pERK expression from day 3” value ([2]; day 11-14, off-treatment window) of the same compound?
The value was 69.3%.

What about the “cases with at least partial pERK recovery” value ([2]; day 11-14 off treatment, of 9 patients) of the same compound?
Its value is 7 cases.

What about the “median PFS” value ([3]; SELPAC, selumetinib 75 mg BID) of the same compound?
The value was 3.4 months.

What about the ORR ([3]; SelPac, 77 patients) of the same compound?
Its ORR is 4%.

And the “median OS” value ([3]; SelPac, 77 patients)?
Its value is 10 months.

What about the half-life [4] of the same compound?
The half-life was 4.3 h.

And the Tmax ([4]; po)?
The Tmax was about 1.7 h.

And the “continuous dose MTD” value ([5]; continuous dosing schedule)?
Its value is 75 mg BID.

What about the mean half-life ([5]; prior knowledge, no reference given) of the same compound?
Its mean half-life is 5 to 8 h.
